Holding throughout (assay): growth of human tumour cells (NCI), 48 h
Experiment [1] has as its system A549 NSCLC.
Experiment [2] deals with HOP-62 NSCLC.
In experiment [3] the test system is MDA-MB-231 breast.
In experiment [4] the test system is NCI-H23 lung.
In experiment [5] the test system is OVCAR-4 ovarian.
In experiment [6] the test system is PC-3 prostate.
In experiment [7] the test system is SR leukemia.
Experiment [8] deals with U251 CNS.
Experiment [9] has as its system RPMI-8226 leukemia.
Experiment [10] relates to MALME-3M melanoma.

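Interpolation was linear, between the two tested concentrations surrounding the appropriate level; five concentrations were tested over 48 hours in 96-well plates. GI50 = concentration required for 50% inhibition of growth. Definition used: TGI = concentration required for complete inhibition of growth.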

`CC(C)CCN=C(N)c1ccc(N2CCN(c3ccc(C(N)=NCCC(C)C)cc3)CC2)cc1`: the GI50 in [1] is 7.61 µM; in experiment [2], 10.4 µM; in experiment [3] it was 20.6 µM; in [4] it was 3.75 µM; in experiment [5], 3.4 µM; in experiment [6], 11.4 µM. The GI50 is 2.73 µM in experiment [7] and 13.9 µM in experiment [8]. The TGI in experiment [1] was over 100 µM; in experiment [2], 26.9 µM; in experiment [3], 52.7 µM; in experiment [4], 17.8 µM; in experiment [5], 33.1 µM; in experiment [6], 43.4 µM. In addition, the TGI in experiment [7] was found to be 7.44 µM; in experiment [8] it was 32.9 µM.

`O=[N+]([O-])c1c(Br)sc(Br)c1[N+](=O)[O-]`: the GI50 in [1] is 13.7 µM; in experiment [2], 3.25 µM; in experiment [3], 2.32 µM; in experiment [4] it was 11.3 µM; in experiment [5], 1.85 µM; in experiment [6], 1.94 µM. Also, the GI50 in [9] is 1.91 µM; in experiment [7], 0.633 µM; in experiment [8], 2.15 µM. The TGI in experiment [1] turned out to be 41.5 µM; in experiment [2] it was 11.3 µM; in experiment [3], 6.19 µM; in experiment [4], 28.9 µM; in experiment [5], 3.62 µM; in experiment [6], 4.03 µM. For the same compound, the TGI in experiment [9] was determined as 5.54 µM; in experiment [7], 11.7 µM; in experiment [8], 5.46 µM.

For the compound `COc1cc2c3c(c1OC)-c1c(ccc4c1OCO4)CC3(C#N)N(C(=O)c1ccccc1)CC2` (stereo unspecified), the TGI in [1] is over 100 µM; in experiment [2] it was over 100 µM; in experiment [10] it was over 100 µM; in [4], over 100 µM; in experiment [5], 59 µM; in experiment [9], over 100 µM. In addition, the TGI in experiment [7] and in experiment [8] was over 100 µM in each case.

On to `COc1ccc(Cn2cc3c(c2-c2ccc(OC)cc2)CCc2cnoc2-3)cc1`, for which the GI50 in experiment [1] was 0.582 µM; in experiment [2], 0.539 µM; in experiment [3] it was 1.41 µM; in [4] it was 0.519 µM; in experiment [5], 0.93 µM; in [6], 0.602 µM. Besides, the GI50 was 0.336 µM in experiment [9], 0.331 µM in experiment [7] and 0.444 µM in experiment [8]. The TGI in [1] was over 100 µM; in [2], over 100 µM; in [3], over 53.7 µM; in experiment [4], over 100 µM; in experiment [5], over 100 µM; in experiment [6], over 100 µM. Further, the TGI in experiment [7] is 1.94 µM; in experiment [8], over 100 µM.

In the case of `O=[N+]([O-])c1cccc(C2ON2C2CCCCC2)c1` (stereo unspecified), the TGI in experiment [1] amounted to 84.5 µM; in experiment [2], 81.3 µM; in [10], 54.6 µM; in experiment [4], 45.1 µM; in experiment [5], 38.3 µM; in experiment [9], 7.98 µM. Further, the values for the TGI in experiment [7] and in [8] were 7.81 µM and 14 µM, respectively.

Turning to `CCCCS(=O)(=O)CCC(N)C(=O)O` (stereo unspecified), the TGI in experiment [1], in [2], in [10], in experiment [3], in [4] and in experiment [5] was over 100 µM in each case. In addition, the TGI in experiment [6], in experiment [7] and in experiment [8] was over 100 µM each time.

As for `COC(=O)CCC(=O)CC(=O)C(=O)Nc1c(Cl)cc([N+](=O)[O-])cc1Cl`, the TGI in experiment [1] is over 100 µM; in [2], over 100 µM; in [10], over 100 µM; in [4], over 100 µM; in experiment [5], over 100 µM; in experiment [9] it was 88.1 µM. The TGI in experiment [7] is 61.7 µM; in [8], over 100 µM.

Consider `CCc1cccc(C(C)C)c1NC(=O)C(=O)C(CC(=O)Nc1ccc(Cl)c(Cl)c1)C(=O)OC` (stereo unspecified), for which the TGI in experiment [1], in [2], in experiment [10], in [4], in experiment [5] and in [9] was over 100 µM each time. In addition, the TGI in experiment [7] and in experiment [8] was over 100 µM in each case.

On to `C[C@]1(CO)CCC[C@@]2(C)C1CC[C@H]1CC3C[C@]12CC[C@]3(C)O` (stereo partly specified), for which the TGI in experiment [1], in experiment [2], in experiment [10], in experiment [4], in experiment [5] and in [9] was over 100 µM throughout. Also, the TGI in [7] and in experiment [8] was over 100 µM in each case.

As for `CCC1CCc2nc3sc(C(=O)Nc4cccc(F)c4)c(N)c3cc2C1` (stereo unspecified), the GI50 in experiment [1], in experiment [2], in experiment [3], in experiment [4], in experiment [5] and in experiment [6] was over 100 µM throughout. Moreover, the GI50 in experiment [9] was over 100 µM; in [7], 0.379 µM; in [8] it was over 100 µM. Besides, the TGI in [1], in experiment [2], in experiment [3], in [4], in experiment [5] and in experiment [6] was over 100 µM in each case. The TGI in [9], in experiment [7] and in experiment [8] was over 100 µM in each case.

On to `Clc1ccc(C2SCc3nc4ccccc4n32)cc1Cl` (stereo unspecified), for which the TGI in experiment [1] amounted to 32.6 µM; in experiment [2], 27.8 µM; in experiment [10] it was 42.5 µM; in experiment [4], 27.5 µM; in [5] it was 25.8 µM; in [9], 96.1 µM. Also, the TGI in experiment [7] is 55.1 µM; in [8], 30.8 µM.
